From publication PMC9695821, “Synthesis and Evaluation of NF-κB Inhibitory Activity of Mollugin Derivatives” (Molecules, 2022) come the findings set out here.

Data set [1] relates to NF-κB transcriptional activity. Put plainly: NF-κB luciferase reporter assay in HeLa cells. Type of data set: cell-based. The note with it: Homo sapiens, NF-κB luciferase reporter, 24 h treatment, hypoxic conditions, mean, n = 3. As to the method:
A NF-κB-Luc plasmid for NF-κB luciferase reporter assay was obtained from Strategene (La Jolla, CA, USA). Transfections were performed as previously described. NF-κB-dependent luciferase activity was measured using the Dual-luciferase reporter assay system. Briefly, HeLa cells (1 × 10^5 cells/well) were seeded in a 96-well plate for 24 h. The cells were then transfected with plasmids for each well and then incubated for a transfection period of 24 h. […] Luciferase activity was determined in MicroLumat plus luminometer (EG&G Berthold, Bad Wildbad, Germany) by injecting 100 µL of assay buffer containing luciferin and measuring light emission for 10 s. Co-transfection with pRL-CMV (Promega, Madison, WI, USA), which expresses Renilla luciferase, was performed to enable normalization of data for transfection efficiency.

Data set [2] in a line: MTT cytotoxicity / cell viability assay. Type of data set: cell-based. The note with it: human; MTT assay, HeLa cells, 24 h treatment, normoxic conditions; mean, n = 3. The protocol:
HeLa cells were inoculated and cultured in 96-well plates. After the cells adhered to the wall, the prepared target compounds with different concentrations were added to all plates for 24 h and then cultured in 5 mg/mL MTT solution for 4 h. The culture solution in the holes was sucked out, and DMSO reagent was added. After the crystallization was fully dissolved, the absorbance at 570 nm was measured by Multiskan GO.
Background: Tetrazolium dyes change colour on reduction, which living cells bring about.

The test system of data set [3] is xylene-induced ear edema. Put plainly: Xylene-induced ear edema test, initial screening (i.p.). The format is in vivo. The settings on record: mice; for inhibition in vivo at 100 mg/kg: Mus musculus, ip, 0.5 h, n = 6, read-out: Inhibition Rate; for Edema Mean ± SD: 100 mg/kg, n = 6. As to the method:
In vivo inhibition test of xylene induced ear edema in mice was performed to evaluate its anti-inflammatory activity.
In the initial screening, mice (male) were randomly divided into experimental group, positive control drug ibuprofen and Mesalazine group, and blank group. All target compounds were dissolved in dimethyl sulfoxide, and corresponding drugs were intraperitoneally injected into experimental group, positive control group and blank group, respectively. Mice were treated with 100 mg/kg, 0.1 mL/20 g body weight, and control mice received only DMSO (0.1 mL/20 g body weight). After 30 min, 20 μL of xy-lene was evenly applied on both sides of the right ear of the mice. After 30 min of xy-lene was applied, the mice were sacrificed by cutting off their necks. Then the left and right ears of the mice were drilled with a hole punch with a diameter of 7 mm, respec-tively, to obtain two round ear pieces. The degree of swelling (right ear mass–left ear mass) was calculated for each sample, and the swelling inhibition rate of each drug was calculated using the following formula. The inhibition rate of swelling degree (%) = (mean ear swelling degree of mice in blank group […] mean ear swelling degree of mice in target compound group)/mean ear swelling degree of mice in blank group × 100%. The data were processed by GraphPadPrism 5 and expressed as mean data ± SEM. One-way ANOVA method was used for statistical analysis of relevant data. A value of p < 0.05 in the chart indicates significant and statistically significant data dif-ference.

The subject of data set [4] is xylene-induced ear edema. Put plainly: Xylene-induced ear edema test, deep screening (oral). The format is in vivo. The note with it: mice. The protocol:
In the deep screening, mice were divided into target compound group, positive control group (ibuprofen), and blank group (8 male mice in each group). Target com-pound and ibuprofen were dissolved in sodium carboxymethyl cellulose aqueous solu-tion (sodium carboxymethyl cellulose to water, mass ratio 1:1000); the blank group was sodium carboxymethyl cellulose aqueous solution (sodium carboxymethyl cellu-lose to water, mass ratio 1:1000). The anti-inflammatory activities of each compound in the target compound group, positive control group, and blank group were measured at 1, 2, 3, 4, 6, 9, 12 and 24 h after taking the drug. The experimental operation and calculation method are the same as the initial screening part.

Molecules are shown by their SMILES. Marks after values point to notes of the source that are not given here. Some results are limits rather than exact numbers.

Usually IC50 stands for the concentration at which inhibition is half-maximal. Read a high IC50 as weaker potency in that assay. A word on the melting point: it is the temperature, or range, at which the solid turns liquid. As for `COC(=O)c1c2c(c3ccccc3c1OCC(=O)Nc1ccccc1)OC(C)(C)C=C2` [Compound 4a, Methyl 2,2-dimethyl-6-(2-oxo-2-(phenylamino)ethoxy)-2H-benzo [h] chromene-5-carboxyate], the melting point fell in the range of 118 to 120 °C. In data set [1], this compound yielded an IC50 greater than 100 µM. The compound also returned an IC50 at 24 h in data set [2] greater than 100 µM. Further, in the data set with xylene-induced ear edema [3], the inhibition in vivo at 100 mg/kg amounted to 38.6% and the “Edema Mean ± SD” value worked out at 4.0500 ± 0.6188 mg.

Take `COC(=O)c1c2c(c3ccccc3c1OCC(=O)Nc1ccc(Cl)cc1)OC(C)(C)C=C2` [Compound 4b, Methyl 6-(2-((4-chlorophenyl)amino)-2-oxoethoxy)-2,2-dimethyl-2H-benzo [h] chromene-5-carboxylate]: the melting point lay within 122 to 124 °C. The compound also yielded an IC50 in data set [1] greater than 100 µM. The IC50 at 24 h in data set [2] was greater than 100 µM. Also, in the data set with xylene-induced ear edema [3], the inhibition in vivo at 100 mg/kg was 55.8% and the “Edema Mean ± SD” value is listed as 2.9167 ± 0.8029 mg.

Turning to `COC(=O)c1c2c(c3ccccc3c1OCC(=O)Nc1ccc(Br)cc1)OC(C)(C)C=C2` [Compound 4c, Methyl 6-(2-((4-bromophenyl)amino)-2-oxoethoxy)-2,2-dimethyl-2H-Benzo [h] chromene-5-carboxylate], the melting point lay in the range of 125 to 127 °C. In data set [1], this compound yielded an IC50 greater than 100 µM. For the same compound, the IC50 at 24 h in data set [2] was greater than 100 µM. Besides, in the data set with xylene-induced ear edema [3], the inhibition in vivo at 100 mg/kg came out at 49.2% and the “Edema Mean ± SD” value is 3.3500 ± 1.0579 mg.

`COC(=O)c1c2c(c3ccccc3c1OCC(=O)Nc1ccccc1C)OC(C)(C)C=C2` [Compound 4g, Methyl 2,2-dimethyl-6-(2-oxo-2-(o-tolylamino)ethoxy)-2H-Benzo [h] chromene-5-carboxylate] showed a melting point of 122 to 124 °C. Further, the IC50 in data set [1] is greater than 100 µM. The compound further had a half-inhibitory concentration (IC50) at 24 h in data set [2] greater than 100 µM. For the same compound, in the data set with xylene-induced ear edema [3], the inhibition in vivo at 100 mg/kg came out at 42.4% and the “Edema Mean ± SD” value is reported as 3.8000 ± 0.5066 mg.

Turning to `COC(=O)c1c2c(c3ccccc3c1OCC(=O)Nc1cccc(C)c1)OC(C)(C)C=C2` [Compound 4h, Methyl 2,2-dimethyl-6-(2-oxo-2-(m-tolylamino)ethoxy)-2H-benzo [h] chromene-5-carboxylate], the melting point was in the range of 122 to 124 °C. The same compound showed an IC50 in data set [1] greater than 100 µM. The compound further displayed an IC50 at 24 h in data set [2] greater than 100 µM. In the data set with xylene-induced ear edema [3], the inhibition in vivo at 100 mg/kg worked out at 62.4% and the “Edema Mean ± SD” value is reported as 2.4833 ± 1.5464 mg.

`COC(=O)c1c2c(c3ccccc3c1OCC(=O)NC1CCN(Cc3ccccc3)CC1)OC(C)(C)C=C2` [Compound 6a, Methyl 6-(2-((1-benzylpiperidin-4-yl)amino)-2-oxoethoxy)-2,2-dimethyl-2H-benzo [h] chromene-5-carboxylate] registered a melting point of 115 to 117 °C. It took 49.3 µM to reach half-maximal inhibition in data set [1] (IC50). The IC50 at 24 h in data set [2] was greater than 100 µM. In addition, in the data set with xylene-induced ear edema [3], the inhibition in vivo at 100 mg/kg amounted to 56.6% and the “Edema Mean ± SD” value came out at 2.8667 ± 1.2645 mg.

`COC(=O)c1c2c(c3ccccc3c1OCC(=O)Nc1ccncc1C)OC(C)(C)C=C2` [Compound 6b, Methyl 2,2-dimethyl-6-(2-((3-methylpyridin-4-yl)amino)-2-oxoethoxy)-2H-benzo [h] chromene-5-carboxylate] showed a melting point of 123 to 125 °C. In addition, in data set [1], the half-maximal inhibitory concentration (IC50) amounted to 41.9 µM. In data set [2], this compound displayed an IC50 at 24 h greater than 100 µM. In the data set with xylene-induced ear edema [3], the inhibition in vivo at 100 mg/kg turned out to be 63.1% and the “Edema Mean ± SD” value is given as 2.4333 ± 0.1795 mg.

`COC(=O)c1c2c(c3ccccc3c1OCC(=O)NCc1ccc(Cl)cc1)OC(C)(C)C=C2` [Compound 6c, Methyl 6-(2-((4-chlorobenzyl)amino)-2-oxoethoxy)-2,2-dimethyl-2H-benzo [h] chromene-5-carboxylate] had a melting point of 130 to 132 °C. This compound yielded an IC50 in data set [1] of 23.1 µM. The same compound registered an IC50 at 24 h in data set [2] greater than 100 µM. Further, in the data set on xylene-induced ear edema [3], the inhibition in vivo at 100 mg/kg came to 73.2% and the “Edema Mean ± SD” value is on record as 1.7667 ± 0.3037 mg.

The compound `COC(=O)c1c2c(c3ccccc3c1OCC(=O)Nc1ccncc1)OC(C)(C)C=C2` [Compound 6e, Methyl 2,2-dimethyl-6-(2-oxo-2-(pyridin-4-ylamino)ethoxy)-2H-benzo [h] chromene-5-carboxylate] returned a melting point of 126 to 128 °C. In data set [1], this compound gave an IC50 greater than 100 µM. The compound further returned an IC50 at 24 h in data set [2] greater than 100 µM. In addition, in the data set on xylene-induced ear edema [3], the inhibition in vivo at 100 mg/kg was found to be 65.9% and the “Edema Mean ± SD” value is listed as 2.2500 ± 0.3403 mg.

`COC(=O)c1c2c(c3ccccc3c1OCC(=O)NC1CC1)OC(C)(C)C=C2` [Compound 6f, Methyl 6-(2-(cyclopropylamino)-2-oxoethoxy)-2,2-dimethyl-2H-benzo [h] chromene-5-carboxylate] returned a melting point of 134 to 136 °C. Further, the half-inhibitory concentration (IC50) in data set [1] is greater than 100 µM. Further, the IC50 at 24 h in data set [2] was greater than 100 µM. In the data set on xylene-induced ear edema [3], the inhibition in vivo at 100 mg/kg came to 57.3% and the “Edema Mean ± SD” value was found to be 2.8167 ± 0.6962 mg.

In turn, `COC(=O)c1c2c(c3ccccc3c1OCC(=O)NC(c1ccccc1)c1ccccc1)OC(C)(C)C=C2` [Compound 6g, Methyl 6-(2-(benzhydrylamino)-2-oxoethoxy)-2,2-Dimethyl-2H-benzo [h] chromene-5-carboxylate] gave a melting point of 127 to 129 °C. The compound also showed an IC50 in data set [1] greater than 100 µM. This compound registered an IC50 at 24 h in data set [2] greater than 100 µM. Further, in the data set with xylene-induced ear edema [3], the inhibition in vivo at 100 mg/kg is 58.6% and the “Edema Mean ± SD” value is on record as 2.7333 ± 0.4819 mg.

`COC(=O)c1c2c(c3ccccc3c1OCC(=O)Nc1cnccn1)OC(C)(C)C=C2` [Compound 6h, Methyl 2,2-dimethyl-6-(2-oxo-2-(pyrazin-2-ylamino)ethoxy)-2H-benzo [h] chromene-5-carboxylate] returned a melting point of 121 to 123 °C. Also, in data set [1], half-maximal inhibition (IC50) was put at 4.93 µM. The compound also registered a 50% inhibitory concentration (IC50) at 24 h in data set [2] greater than 100 µM. In addition, in the data set with xylene-induced ear edema [3], the inhibition in vivo at 100 mg/kg stood at 72.7% and the “Edema Mean ± SD” value is reported as 1.8000 ± 0.6880 mg.

`COC(=O)c1c2c(c3ccccc3c1O)OC(C)(C)C=C2` [Mollugin] showed an IC50 in data set [1] greater than 100 µM. In addition, the IC50 at 24 h in data set [2] was greater than 100 µM. Further, in the data set on xylene-induced ear edema [3], the inhibition in vivo at 100 mg/kg is 54% and the “Edema Mean ± SD” value came to 3.0333 ± 0.9655 mg.

Consider `CC(C)Cc1ccc(C(C)C(=O)O)cc1` (centres unmarked) [ibuprofen, reference compound], for which the inhibition in vivo at 100 mg/kg in the data set with xylene-induced ear edema [3] came out at 49.8%. In addition, in the data set with xylene-induced ear edema [3], the “Edema Mean ± SD” value worked out at 3.3167 ± 0.5550 mg. Further, the Inhibition was 22.98% *** in the data set with xylene-induced ear edema [4] (100 mg/kg, time 1 h); 33.33% *** in the data set with xylene-induced ear edema [4] (100 mg/kg, time 2 h); 44.95% *** in the data set on xylene-induced ear edema [4] (100 mg/kg, time 3 h); 47.47% in the data set on xylene-induced ear edema [4] (100 mg/kg, time 4 h); 47.47% *** in the data set on xylene-induced ear edema [4] (100 mg/kg, time 4 h, listed as Ibuprfen); 44.44% *** in the data set with xylene-induced ear edema [4] (100 mg/kg, time 6 h (Table 5)). The Inhibition with xylene-induced ear edema [4] (100 mg/kg, time 9 h) was 34.60% ***; in the data set with xylene-induced ear edema [4] (100 mg/kg, time 12 h), 19.95% **; in the data set on xylene-induced ear edema [4] (100 mg/kg, time 24 h), 14.65% *; in the data set with xylene-induced ear edema [4] (dose series, 25 mg/kg, 6 h) it was 28.95% *; with xylene-induced ear edema [4] (dose series, 50 mg/kg, 6 h), 32.68% **; in the data set with xylene-induced ear edema [4] (dose series, 100 mg/kg, 6 h (Table 6)) it was 43.32% ***.

As for `Nc1ccc(O)c(C(=O)O)c1` [mesalazine, reference compound], in the data set with xylene-induced ear edema [3], the inhibition in vivo at 100 mg/kg is 51.3% and the “Edema Mean ± SD” value is 3.2167 ± 1.1067 mg.
